# Where “and” joins values, the source holds several entries; their conditions need not be identical. Equal entries are not always repeated. Entries after “also recorded” stand apart in the source; their conditions may differ.
# How the values were obtained:
# [1] = target: CypD (Homo sapiens, UniProt P30405); assay: Chymotrypsin coupled prolyl-isomerase assay; conditions: read-out: Wild-Type Cyclophilin Prolyl Isomerase Inhibition IC50 Values, CypD; wild-type CypD
# Procedure: Five microliters of compound pre-dissolved in 5% DMSO/assay buffer was then added to appropriate wells and incubated at 2–3 °C for 5 min. Five microliters of 0.5 mM α-chymotrypsin from bovine pancreas (Type II, lyophilized powder, Millipore-Sigma) in 20% 1 mM HCl/Assay Buffer was then added to each well and incubated at 2–3 °C for 5 min. The plate was then quickly transferred to a FLIPR Tetra High-Throughput Cellular Screening System (Molecular Devices). Using the internal liquid handling system of the FLIPR, 1 µL 0.5 mM Suc-AAPF-AMC (Chymotrypsin Substrate II, Millipore-Sigma) dissolved in 0.55 M LiCl/2,2,2-trifluoroethanol was added to each well, which was then mixed for 5 s, followed by immediate fluorescence measurements every 1 s for 330 s using a 360–380 nm excitation LED module and a 400–460 nm emission filter. […] Raw fluorescence data was analyzed by non-linear regression analysis with Prism v.9 by fitting one-phase association curves to each well. […] Rate constants calculated for each well (s^−1) were then normalized to substrate only (no prolyl-isomerase) and enzyme + substrate only controls.
# [2] = test system: HeLa cells; assay: Fluorescence microscopy of Cy5-conjugated compounds; type: cell-based, human
# Procedure: Cells were seeded into 96-well, black, clear-bottom, TC-treated plates, in DMEM supplemented with 10% FBS 24 h prior at a density where wells were ~80% confluent at the time of the experiment. Medium was removed and cells were then stained with 50 µL mixture containing Cy5-labeled compound (6 µM) in Kreb’s ringer solution HEPES buffered pH 7.2 (KRB), for 1 h at 37 °C. Then, 50 µL Hoechst 33342 (8 µM) and Mitotracker Green FM (0.1 µM) in KRB was added directly to wells containing cells and incubated for 15 min at 37 °C. Medium was removed and cells were washed twice with 100 µL KRB. Cells were then kept adherent to the wells in 100 µL KRB for imaging. Fluorescence microscopy was conducted on an Opera Phenix Plus High-Content Screening System, using Alexa 488, Alexa 647, and Hoescht 33342 channels. Images were analyzed using Harmony v.4.9.
# [3] = In vitro ester pro-drug stability, buffer only; type: in vitro ADME; conditions: 8 h, 6 µM, pH 7.4
# Procedure: (§1) In PCR tubes, ester compound (6 µM) and either buffer only, CES1 (0.25 µM), or CES2 (0.25 µM) was diluted in 100 mM Tris-HCl buffer, pH 7.4, with a final DMSO concentration of 1%. Samples were maintained on a PCR block at 37 °C for 8 h. After incubation, samples were diluted with 20 µL acetonitrile and analyzed by LC–MS at Harvard’s Center for Mass Spectroscopy. Di-ester, mono-ester, and di-acid abundances were quantified by total ion count of the primary isotope and the three compounds were summed and each one expressed as a fraction of the total sum.
# [4] = target: T1, CES1 (Homo sapiens, UniProt P23141); assay: In vitro esterase activity on ester pro-drugs; type: in vitro ADME; design: unit not given here; conditions: CES1 (9b); three replicate columns
# T1 construct: purchased R&D Systems
# T1 sequence (P23141 18-567): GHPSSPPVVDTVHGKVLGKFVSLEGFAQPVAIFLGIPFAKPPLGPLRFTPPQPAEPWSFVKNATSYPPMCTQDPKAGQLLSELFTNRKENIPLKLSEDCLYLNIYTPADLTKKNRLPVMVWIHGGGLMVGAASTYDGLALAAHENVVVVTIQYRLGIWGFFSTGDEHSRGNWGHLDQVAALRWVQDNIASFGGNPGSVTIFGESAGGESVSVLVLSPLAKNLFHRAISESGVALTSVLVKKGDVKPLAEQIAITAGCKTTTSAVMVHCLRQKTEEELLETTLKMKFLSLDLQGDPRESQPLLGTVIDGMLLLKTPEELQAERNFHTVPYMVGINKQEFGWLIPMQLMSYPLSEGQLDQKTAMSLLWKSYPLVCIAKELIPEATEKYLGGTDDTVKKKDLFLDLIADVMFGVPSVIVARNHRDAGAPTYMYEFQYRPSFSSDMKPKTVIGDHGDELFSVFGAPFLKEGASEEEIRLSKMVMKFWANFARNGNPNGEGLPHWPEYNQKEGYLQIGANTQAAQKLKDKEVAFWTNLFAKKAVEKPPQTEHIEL
# Procedure: as §1
# [5] = target: T2, CES2 (Homo sapiens, UniProt O00748); assay: In vitro esterase activity on ester pro-drugs; type: in vitro ADME; design: unit not given here; conditions: CES2 (9c); three replicate columns
# T2 construct: purchased R&D Systems
# T2 sequence (O00748 27-559): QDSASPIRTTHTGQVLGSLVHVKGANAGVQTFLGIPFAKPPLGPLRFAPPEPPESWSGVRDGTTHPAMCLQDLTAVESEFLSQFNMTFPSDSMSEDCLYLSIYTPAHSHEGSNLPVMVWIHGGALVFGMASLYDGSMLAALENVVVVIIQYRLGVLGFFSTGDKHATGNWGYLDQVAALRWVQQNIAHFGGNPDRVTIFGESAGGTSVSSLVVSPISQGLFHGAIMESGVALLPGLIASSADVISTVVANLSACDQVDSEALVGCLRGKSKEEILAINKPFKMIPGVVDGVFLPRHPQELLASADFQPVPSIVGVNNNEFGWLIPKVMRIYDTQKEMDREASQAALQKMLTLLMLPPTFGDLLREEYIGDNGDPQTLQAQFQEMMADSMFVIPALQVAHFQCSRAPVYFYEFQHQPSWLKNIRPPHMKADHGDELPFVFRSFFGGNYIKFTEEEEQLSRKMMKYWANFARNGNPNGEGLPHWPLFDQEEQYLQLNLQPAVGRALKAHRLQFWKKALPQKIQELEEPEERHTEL
# Procedure: as §1
# [6] = test system: A549 cells; assay: Cellular esterase activity on ester pro-drugs; type: in vitro ADME, human; design: Di-ester: unit not given here; conditions: for intracellular conversion to di-acid (in words): A549, HeLa, HEK293T, HepG2, MEFs; for Di-ester: A549 intracellular (9d), three replicate columns
# Procedure: (§2) Cells were seeded in 96-well, clear, flat-bottom, TC-treated plates in DMEM supplemented with 10% FBS for HEK293T, HeLa, and MEFs, F-12K supplemented with 10% FBS for A549, or MEM supplemented with 10% FBS for HepG2. Cells were seeded 24 h prior at a density where wells were ~70% confluent at the time of the experiment. Medium was removed and cells were incubated with 100 µL mixture containing each Cy5-conjugated compound (6 µM) in their respective medium at 1% DMSO for 48 h (36 h for HepG2) at 37 °C at 5% CO2. Supernatant was removed, and cells were washed twice with 100 µL PBS pH 7.4 (Gibco). Cells were then lysed for 15 min with 30 µL 10 mM Tris-HCl pH 8.0 buffer containing 0.05% SDS. Lysates were diluted with 100 µL acetonitrile and filtered. Lysates were analyzed by LC–MS at Harvard’s Center for Mass Spectroscopy. Di-ester, mono-ester, and di-acid abundances were quantified by total ion count of the primary isotope, and the three compounds were summed and each one expressed as a fraction of the total sum.
# [7] = test system: HEK293T cells; assay: Cellular esterase activity on ester pro-drugs; type: in vitro ADME, human; design: unit not given here; conditions: HEK293T intracellular (9f); three replicate columns
# Procedure: as §2
# [8] = test system: HeLa cells; assay: Cellular esterase activity on ester pro-drugs; type: in vitro ADME, human; design: unit not given here; conditions: Hela intracellular (9e); three replicate columns
# Procedure: as §2
# [9] = test system: MEFs; assay: Cellular esterase activity on ester pro-drugs; type: in vitro ADME, mouse; design: unit not given here; conditions: SV40 MEF intracellular (9g); three replicate columns
# Procedure: as §2
# [10] = test system: HepG2 cells; assay: Cellular esterase activity on ester pro-drugs; type: in vitro ADME, human; design: unit: %; conditions: HepG2 intracellular (9h); three replicate columns
# Procedure: as §2
# CypD, sequence (P30405 45-207): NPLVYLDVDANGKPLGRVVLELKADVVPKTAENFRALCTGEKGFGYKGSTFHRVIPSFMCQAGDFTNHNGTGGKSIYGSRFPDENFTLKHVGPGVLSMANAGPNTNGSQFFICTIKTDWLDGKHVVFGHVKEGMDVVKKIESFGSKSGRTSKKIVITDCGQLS
Structure (SMILES),IC50 [1] [µM],plasma membrane permeability / mitochondrial localization (in words) [2],Di-acid [3],Di-ester [3],Mono-ester [3],Di-ester [4],Di-ester [5],intracellular conversion to di-acid (in words) [6],Di-ester [6],Di-ester [7],Di-ester [8],Di-ester [9],Di-ester [10]
CCOC(=O)C(Cc1ccc(-c2ccc(CC3NC(=O)C4(Cc5ccccc5)CCCN(C4)C(=O)C=CC(=O)NCCC(C(=O)NCCNC(=O)CCCCCN4C(=CC=CC=CC5=[N+](C)c6ccccc6C5(C)C)C(C)(C)c5ccccc54)NC(=O)Cc4ccccc4CNC3=O)cc2)cc1)C(=O)OCC (centres unmarked) [Compound B52-Et-Cy5],> 2,good mitochondrial localization; also recorded: good plasma membrane permeability,0,100,0,13 and 14 and 16,30 and 35 and 21,readily converted to the corresponding di-acids intracellularly,0 (2×) and 1,9 and 11 and 8,1,8 and 6 and 7,45 and 44 and 43
CCOC(=O)CC(CC(=O)OCC)c1ccc(-c2ccc(CC3NC(=O)C4(Cc5ccccc5)CCCN(C4)C(=O)C=CC(=O)NCCC(C(=O)NCCNC(=O)CCCCCN4C(=CC=CC=CC5=[N+](C)c6ccccc6C5(C)C)C(C)(C)c5ccccc54)NC(=O)Cc4ccccc4CNC3=O)cc2)cc1 (centres unmarked) [Compound B53-Et-Cy5],> 2,good mitochondrial localization; also recorded: good plasma membrane permeability,0,100,0,12 and 10 and 13,21 (2×) and 11,readily converted to the corresponding di-acids intracellularly,18 and 14 and 21,74 (2×) and 72,20 and 12 (2×),36 and 40 and 39,67 and 68 (2×)

# From paper PMC9596378, “Discovery and molecular basis of subtype-selective cyclophilin inhibitors” (Nature Chemical Biology, 2022)
